{
  "source": "patent US7229782B1",
  "about": "“Antibodies specific to multiple beta blockers and methods for their use” (LabOne, Inc., priority 2004, dated 2007)",
  "data": [
    {"test_system": "antibody of the present invention", "assay": "Interference from other drugs, homogeneous enzyme immunoassay", "assay_type": "binding, rabbit", "conditions": "chemical at 10.0 μg/ml urine; cutoff 5.0 μg Atenolol per ml of urine; tested three times", "method": "Samples were checked for turbidity and growth. A homogeneous enzyme immunoassay was carried out on an Olympus AU-5200 analyzer using the following assay parameters:\nReagent 1 is comprised of a titer of 1–500 dilution of an antibody of the present invention, 11.25 mM NAD+, 11.25 mM G6P, 0.1% w/v sodium azide and 100 mM Tris.\nReagent 2 is comprised of a titer of 1–2000 dilution of a G6PDH-beta blocker conjugate, 0.1% w/v sodium azide, and 50 mM Tris.\nA homogenous calibrator containing sodium azide was used to calibrate the analyzer prior to each run.\nThe analytical cutoff for the test was set at 5.0 μg Atenolol per ml of urine. The result was scored as a positive if the signal strength was greater than that produced by 5.0 μg Atenolol per ml of urine.\nInterference from other drugs was tested using fifty-five (55) frequently used chemicals and medicines, at concentrations of 10.0 μg/ml urine.\nThe samples were tested three times, following the procedures used in Example 3.", "values": [
      {"compound": "CCC(=O)C(CC(C)N(C)C)(c1ccccc1)c1ccccc1", "note": "(racemic) [Methadone (DL-)]", "Beta-Blocker Pos./Neg.": "Neg. (scored as a positive if the signal strength was greater than that produced by 5.0 μg Atenolol per ml of urine)"},
      {"compound": "CN1C(=O)CC[C@H]1c1cccnc1", "note": "[(−)-Cotinine]", "Beta-Blocker Pos./Neg.": "Neg. (scored as a positive if the signal strength was greater than that produced by 5.0 μg Atenolol per ml of urine)"},
      {"compound": "CC(=O)Oc1ccccc1C(=O)O", "note": "[Acetylsalicylic Acid]", "Beta-Blocker Pos./Neg.": "Neg. (scored as a positive if the signal strength was greater than that produced by 5.0 μg Atenolol per ml of urine)"},
      {"compound": "Cc1nnc2n1-c1ccc(Cl)cc1C(c1ccccc1)=NC2", "note": "[Alprazolam]", "Beta-Blocker Pos./Neg.": "Neg. (scored as a positive if the signal strength was greater than that produced by 5.0 μg Atenolol per ml of urine)"},
      {"compound": "C[C@H](N)Cc1ccccc1", "note": "[Amphetamine (D-)]", "Beta-Blocker Pos./Neg.": "Neg. (scored as a positive if the signal strength was greater than that produced by 5.0 μg Atenolol per ml of urine)"},
      {"compound": "CC1(C)S[C@@H]2[C@H](NC(=O)[C@H](N)c3ccccc3)C(=O)N2[C@H]1C(=O)O", "note": "[Ampicillin]", "Beta-Blocker Pos./Neg.": "Neg. (scored as a positive if the signal strength was greater than that produced by 5.0 μg Atenolol per ml of urine)"},
      {"compound": "CN1[C@H]2CC[C@@H]1[C@@H](C(=O)O)[C@@H](OC(=O)c1ccccc1)C2", "note": "[Benzoylecgonine]", "Beta-Blocker Pos./Neg.": "Neg. (scored as a positive if the signal strength was greater than that produced by 5.0 μg Atenolol per ml of urine)"},
      {"compound": "C=CCC1(CC(C)C)C(=O)NC(=O)NC1=O", "note": "[Butalbital]", "Beta-Blocker Pos./Neg.": "Neg. (scored as a positive if the signal strength was greater than that produced by 5.0 μg Atenolol per ml of urine)"},
      {"compound": "Cn1c(=O)c2c(ncn2C)n(C)c1=O", "note": "[Caffeine]", "Beta-Blocker Pos./Neg.": "Neg. (scored as a positive if the signal strength was greater than that produced by 5.0 μg Atenolol per ml of urine)"},
      {"compound": "CN(C)CCCN1c2ccccc2Sc2ccc(Cl)cc21", "note": "[Chlorpromazine]", "Beta-Blocker Pos./Neg.": "Neg. (scored as a positive if the signal strength was greater than that produced by 5.0 μg Atenolol per ml of urine)"},
      {"compound": "O=C1CN=C(c2ccccc2Cl)c2cc([N+](=O)[O-])ccc2N1", "note": "[Clonazepam]", "Beta-Blocker Pos./Neg.": "Neg. (scored as a positive if the signal strength was greater than that produced by 5.0 μg Atenolol per ml of urine)"},
      {"compound": "O=C(O)C1N=C(c2ccccc2)c2cc(Cl)ccc2NC1=O", "note": "(stereo not drawn) [Clorazepate]", "Beta-Blocker Pos./Neg.": "Neg. (scored as a positive if the signal strength was greater than that produced by 5.0 μg Atenolol per ml of urine)"},
      {"compound": "CCOC(=O)[C@@H]1C2CCC(C[C@@H]1OC(=O)c1ccccc1)N2C", "note": "(stereo partly drawn) [Cocainethylene]", "Beta-Blocker Pos./Neg.": "Neg. (scored as a positive if the signal strength was greater than that produced by 5.0 μg Atenolol per ml of urine)"},
      {"compound": "COc1ccc2c3c1O[C@H]1[C@@H](O)C=C[C@H]4[C@@H](C2)N(C)CC[C@@]341", "note": "[Codeine]", "Beta-Blocker Pos./Neg.": "Neg. (scored as a positive if the signal strength was greater than that produced by 5.0 μg Atenolol per ml of urine)"},
      {"compound": "COc1ccc2c(c1)[C@]13CCCC[C@@H]1[C@H](C2)N(C)CC3", "note": "[Dextromethorphan]", "Beta-Blocker Pos./Neg.": "Neg. (scored as a positive if the signal strength was greater than that produced by 5.0 μg Atenolol per ml of urine)"},
      {"compound": "COC(=O)[C@@H]1[C@H]2CC[C@@H](C[C@@H]1O)N2C.Cl", "note": "[Ecgonine Methyl Ester Hydrochloride]", "Beta-Blocker Pos./Neg.": "Neg. (scored as a positive if the signal strength was greater than that produced by 5.0 μg Atenolol per ml of urine)"},
      {"compound": "CN[C@@H](C)[C@H](O)c1ccccc1", "note": "[Ephedrine (L-)]", "Beta-Blocker Pos./Neg.": "Neg. (scored as a positive if the signal strength was greater than that produced by 5.0 μg Atenolol per ml of urine)"},
      {"compound": "CN[C@@H](C)[C@H](O)c1ccccc1.Cl", "note": "[Ephedrine Hydrochloride (1R,2S)-(−)]", "Beta-Blocker Pos./Neg.": "Neg. (scored as a positive if the signal strength was greater than that produced by 5.0 μg Atenolol per ml of urine)"},
      {"compound": "CC(C(=O)O)c1cccc(Oc2ccccc2)c1", "note": "(stereo not drawn) [Fenoprofen]", "Beta-Blocker Pos./Neg.": "Neg. (scored as a positive if the signal strength was greater than that produced by 5.0 μg Atenolol per ml of urine)"},
      {"compound": "Cc1ccc(C)c(OCCCC(C)(C)C(=O)O)c1", "note": "[Gemfibrozil]", "Beta-Blocker Pos./Neg.": "Neg. (scored as a positive if the signal strength was greater than that produced by 5.0 μg Atenolol per ml of urine)"},
      {"compound": "O=C(O)c1cc(O)ccc1O", "note": "[Gentisic Acid]", "Beta-Blocker Pos./Neg.": "Neg. (scored as a positive if the signal strength was greater than that produced by 5.0 μg Atenolol per ml of urine)"},
      {"compound": "COc1ccc2c3c1O[C@H]1C(=O)CC[C@H]4[C@@H](C2)N(C)CC[C@]314", "note": "[Hydrocodone]", "Beta-Blocker Pos./Neg.": "Neg. (scored as a positive if the signal strength was greater than that produced by 5.0 μg Atenolol per ml of urine)"},
      {"compound": "CC(C)Cc1ccc(C(C)C(=O)O)cc1", "note": "(stereo not drawn) [Ibuprofen]", "Beta-Blocker Pos./Neg.": "Neg. (scored as a positive if the signal strength was greater than that produced by 5.0 μg Atenolol per ml of urine)"},
      {"compound": "CN(C)CCCN1c2ccccc2CCc2ccccc21", "note": "[Imipramine]", "Beta-Blocker Pos./Neg.": "Neg. (scored as a positive if the signal strength was greater than that produced by 5.0 μg Atenolol per ml of urine)"},
      {"compound": "CCN(CC)CC(=O)Nc1c(C)cccc1C", "note": "[Lidocaine]", "Beta-Blocker Pos./Neg.": "Neg. (scored as a positive if the signal strength was greater than that produced by 5.0 μg Atenolol per ml of urine)"},
      {"compound": "CN[C@@H](C)Cc1ccccc1", "note": "[Methamphetamine (D-)]", "Beta-Blocker Pos./Neg.": "Neg. (scored as a positive if the signal strength was greater than that produced by 5.0 μg Atenolol per ml of urine)"},
      {"compound": "C=CCN1CC[C@]23c4c5ccc(O)c4O[C@H]2[C@@H](O)C=C[C@H]3[C@H]1C5", "note": "[Nalorphine]", "Beta-Blocker Pos./Neg.": "Neg. (scored as a positive if the signal strength was greater than that produced by 5.0 μg Atenolol per ml of urine)"},
      {"compound": "COc1ccc2cc([C@H](C)C(=O)O)ccc2c1", "note": "[Naproxen]", "Beta-Blocker Pos./Neg.": "Neg. (scored as a positive if the signal strength was greater than that produced by 5.0 μg Atenolol per ml of urine)"},
      {"compound": "NC(=O)c1cccnc1", "note": "[Niacinamide]", "Beta-Blocker Pos./Neg.": "Neg. (scored as a positive if the signal strength was greater than that produced by 5.0 μg Atenolol per ml of urine)"},
      {"compound": "CCCC(C)C1(CC)C(=O)NC(=O)NC1=O", "note": "(stereo not drawn) [Pentobarbital]", "Beta-Blocker Pos./Neg.": "Neg. (scored as a positive if the signal strength was greater than that produced by 5.0 μg Atenolol per ml of urine)"},
      {"compound": "c1ccc(C2(N3CCCCC3)CCCCC2)cc1", "note": "[Phencyclidine]", "Beta-Blocker Pos./Neg.": "Neg. (scored as a positive if the signal strength was greater than that produced by 5.0 μg Atenolol per ml of urine)"},
      {"compound": "NCCc1ccccc1", "note": "[Phenethylamine (beta-)]", "Beta-Blocker Pos./Neg.": "Neg. (scored as a positive if the signal strength was greater than that produced by 5.0 μg Atenolol per ml of urine)"},
      {"compound": "CNC[C@H](O)c1cccc(O)c1", "note": "[Phenylephrine]", "Beta-Blocker Pos./Neg.": "Neg. (scored as a positive if the signal strength was greater than that produced by 5.0 μg Atenolol per ml of urine)"},
      {"compound": "CC(N)C(O)c1ccccc1", "note": "(stereo not drawn) [Phenylpropanolamine]", "Beta-Blocker Pos./Neg.": "Neg. (scored as a positive if the signal strength was greater than that produced by 5.0 μg Atenolol per ml of urine)"},
      {"compound": "CCN(CC)CCNC(=O)c1ccc(N)cc1", "note": "[Procainamide]", "Beta-Blocker Pos./Neg.": "Neg. (scored as a positive if the signal strength was greater than that produced by 5.0 μg Atenolol per ml of urine)"},
      {"compound": "CCN(CC)CCOC(=O)c1ccc(N)cc1", "note": "[Procaine]", "Beta-Blocker Pos./Neg.": "Neg. (scored as a positive if the signal strength was greater than that produced by 5.0 μg Atenolol per ml of urine)"},
      {"compound": "CN[C@@H](C)[C@@H](O)c1ccccc1", "note": "[Pseudoephedrine]", "Beta-Blocker Pos./Neg.": "Neg. (scored as a positive if the signal strength was greater than that produced by 5.0 μg Atenolol per ml of urine)"},
      {"compound": "C=C[C@H]1C[N@@]2CC[C@H]1C[C@@H]2[C@@H](O)c1ccnc2ccc(OC)cc12", "note": "[Quinidine]", "Beta-Blocker Pos./Neg.": "Neg. (scored as a positive if the signal strength was greater than that produced by 5.0 μg Atenolol per ml of urine)"},
      {"compound": "CN1C(=O)C(O)N=C(c2ccccc2)c2cc(Cl)ccc21", "note": "(stereo not drawn) [Temazepam]", "Beta-Blocker Pos./Neg.": "Neg. (scored as a positive if the signal strength was greater than that produced by 5.0 μg Atenolol per ml of urine)"},
      {"compound": "Cn1c(=O)c2[nH]cnc2n(C)c1=O", "note": "[Theophylline]", "Beta-Blocker Pos./Neg.": "Neg. (scored as a positive if the signal strength was greater than that produced by 5.0 μg Atenolol per ml of urine)"},
      {"compound": "Cc1cc(CC(=O)O)n(C)c1C(=O)c1ccc(Cl)cc1", "note": "[Zomepirac]", "Beta-Blocker Pos./Neg.": "Neg. (scored as a positive if the signal strength was greater than that produced by 5.0 μg Atenolol per ml of urine)"},
      {"compound": "(−)-11-NOR-9-Carboxy-Delta9-THC", "Beta-Blocker Pos./Neg.": "Neg. (scored as a positive if the signal strength was greater than that produced by 5.0 μg Atenolol per ml of urine)"},
      {"compound": "Ecgonine Hydrochloride", "Beta-Blocker Pos./Neg.": "Neg. (scored as a positive if the signal strength was greater than that produced by 5.0 μg Atenolol per ml of urine)"},
      {"compound": "PCP", "Beta-Blocker Pos./Neg.": "Neg. (scored as a positive if the signal strength was greater than that produced by 5.0 μg Atenolol per ml of urine)"},
      {"compound": "Penicillin", "Beta-Blocker Pos./Neg.": "Neg. (scored as a positive if the signal strength was greater than that produced by 5.0 μg Atenolol per ml of urine)"}
    ]}
  ]
}
